# Source: PubChem BioAssay AID258 (DTP/NCI, 2004)
# Values joined by “and” are separate entries in the source; they are usually repeats but may differ in a detail not shown here. Identical values can stand only once. Inconclusive results and toxic doses are left out.
# System: CD2F1 mice, L1210 leukemia sc, survival T/C
# Assay: NCI In Vivo Anticancer Drug Screen. Data for tumor model L1210 Leukemia (subcutaneous) in CD2F1 (CDF1) mice
# Conditions: endpoint: median survival time, higher = longer survival
# Summary of the method: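 T/C ratio: treated-group survival or tumor size over vehicle-control group measurement, in mice carrying transplanted tumors.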
# [1] = dose: 23.0 mg/kg/injection, schedule: Q01DX Z (sc), vehicle: water
structure (smiles),measurement,setting,value
Nc1ncnc2c1ccn2C1OC(CO)C(O)C1O (configuration not stated),T/C,"dose: 0.25 mg/kg/injection, schedule: Q01DX009 (ip), vehicle: Klucel (hydroxypropylcellulose) (HPC)",102 % of control
same,T/C,"dose: 0.5 mg/kg/injection, schedule: Q01DX009 (ip), vehicle: Klucel (hydroxypropylcellulose) (HPC)",97 % of control
same,T/C,"dose: 1.0 mg/kg/injection, schedule: Q01DX009 (ip), vehicle: Klucel (hydroxypropylcellulose) (HPC)",92 % of control
same,T/C,"dose: 2.0 mg/kg/injection, schedule: Q01DX009 (ip), vehicle: Klucel (hydroxypropylcellulose) (HPC)",95 % of control
same,T/C,"dose: 4.0 mg/kg/injection, schedule: Q01DX009 (ip), vehicle: Klucel (hydroxypropylcellulose) (HPC)",97 % of control
same,T/C,"dose: 8.0 mg/kg/injection, schedule: Q01DX009 (ip), vehicle: Klucel (hydroxypropylcellulose) (HPC)",102 % of control
same,T/C,"dose: 16.0 mg/kg/injection, schedule: Q01DX009 (ip), vehicle: Klucel (hydroxypropylcellulose) (HPC)",101 % of control
FC(F)(F)c1nc2nc(Cl)c(Cl)nc2[nH]1,T/C,"dose: 30.0 mg/kg/injection, schedule: Q04DX003 (ip), vehicle: saline with Tween-80",104 % of control
same,T/C,"dose: 44.0 mg/kg/injection, schedule: Q04DX003 (ip), vehicle: saline with Tween-80",106 % of control
same,T/C,"dose: 66.0 mg/kg/injection, schedule: Q04DX003 (ip), vehicle: saline with Tween-80",106 % of control
CC(=O)Oc1ccc[nH]c1=O,T/C,"dose: 16.7 mg/kg/injection, schedule: Q03HX027 (ip), vehicle: saline with Tween-80",107 % of control
same,T/C,"dose: 33.0 mg/kg/injection, schedule: Q03HX027 (ip), vehicle: saline with Tween-80",104 % of control
same,T/C,"dose: 50.0 mg/kg/injection, schedule: Q01DX009 (ip), vehicle: saline with Tween-80",98 % of control
same,T/C,"dose: 66.7 mg/kg/injection, schedule: Q03HX027 (ip), vehicle: saline with Tween-80",96 % of control
same,T/C,"dose: 100.0 mg/kg/injection, schedule: Q01DX009 (ip), vehicle: saline with Tween-80",98 % of control
same,T/C,"dose: 133.0 mg/kg/injection, schedule: Q03HX027 (ip), vehicle: saline with Tween-80",105 % of control
same,T/C,"dose: 200.0 mg/kg/injection, schedule: Q01DX009 (ip), vehicle: saline with Tween-80",98 % of control
same,T/C,"dose: 266.0 mg/kg/injection, schedule: Q03HX027 (ip), vehicle: saline with Tween-80",108 % of control
same,T/C,"dose: 800.0 mg/kg/injection, schedule: Q01DX009 (ip), vehicle: saline with Tween-80",117 % of control
Nc1nc(N)c2cc(CCc3ccc(C(=O)NC(CCC(=O)O)C(=O)O)cc3)ccc2n1 (configuration not stated),T/C,"dose: 0.04 mg/kg/injection, schedule: Q01DX009 (ip), vehicle: Klucel (hydroxypropylcellulose) (HPC)",98 % of control
same,T/C,"dose: 0.08 mg/kg/injection, schedule: Q01DX009 (ip), vehicle: Klucel (hydroxypropylcellulose) (HPC)",102 % of control
same,T/C,"dose: 0.16 mg/kg/injection, schedule: Q01DX009 (ip), vehicle: Klucel (hydroxypropylcellulose) (HPC)",105 % of control
same,T/C,"dose: 0.63 mg/kg/injection, schedule: Q01DX009 (ip), vehicle: Klucel (hydroxypropylcellulose) (HPC)",89 % of control
CC(=O)Nc1ccc2nc3ccc(NC(C)=O)cc3[n+](-c3ccccc3)c2c1,T/C,"dose: 8.4 mg/kg/injection, schedule: Q01DX Z (ip), vehicle: saline",90 % of control
same,T/C,"dose: 14.0 mg/kg/injection, schedule: Q01DX Z (ip), vehicle: saline",95 % of control
same,T/C,"dose: 14.0 mg/kg/injection, schedule: Q01DX Z (sc), vehicle: saline",100 % of control
same,T/C,"dose: 23.0 mg/kg/injection, schedule: Q01DX Z (ip), vehicle: saline",90 % of control
same,T/C,"dose: 23.0 mg/kg/injection, schedule: Q01DX Z (sc), vehicle: saline",100 % of control
same,T/C,"dose: 39.0 mg/kg/injection, schedule: Q01DX Z (ip), vehicle: saline",100 % of control
same,T/C,"dose: 39.0 mg/kg/injection, schedule: Q01DX Z (sc), vehicle: saline",100 % of control
same,T/C,"dose: 65.0 mg/kg/injection, schedule: Q01DX Z (ip), vehicle: saline",100 % of control
same,T/C,"dose: 65.0 mg/kg/injection, schedule: Q01DX Z (sc), vehicle: saline",105 % of control
same,T/C,"dose: 108.0 mg/kg/injection, schedule: Q01DX Z (ip), vehicle: saline",100 % of control
same,T/C,"dose: 108.0 mg/kg/injection, schedule: Q01DX Z (sc), vehicle: saline",100 % of control
same,T/C,"dose: 180.0 mg/kg/injection, schedule: Q01DX Z (sc), vehicle: saline",110 % of control
O=C(Nc1ccc(C2=NCCN2)cc1)c1ccc(C(=O)Nc2ccc(C3=NCCN3)cc2)c(Cl)c1,T/C,"dose: 5.0 mg/kg/injection, schedule: Q01DX Z (iv), vehicle: water",100 % of control
same,T/C,"dose: 8.4 mg/kg/injection, schedule: Q01DX Z (iv), vehicle: water",100 % of control
same,T/C,"dose: 8.4 mg/kg/injection, schedule: Q01DX Z (sc), vehicle: water",120 % of control and 227 % of control
same,T/C,"dose: 14.0 mg/kg/injection, schedule: Q01DX Z (iv), vehicle: water",100 % of control
same,T/C,"dose: 14.0 mg/kg/injection, schedule: Q01DX Z (sc), vehicle: water",188 % of control and 195 % of control and 233 % of control
same,T/C,[1],205 % of control and 220 % of control and 261 % of control
same,T/C,"dose: 39.0 mg/kg/injection, schedule: Q01DX Z (iv), vehicle: water",111 % of control
same,T/C,"dose: 39.0 mg/kg/injection, schedule: Q01DX Z (sc), vehicle: water",211 % of control and 225 % of control and 183 % of control
same,T/C,"dose: 65.0 mg/kg/injection, schedule: Q01DX Z (iv), vehicle: water",155 % of control
same,T/C,"dose: 65.0 mg/kg/injection, schedule: Q01DX Z (sc), vehicle: water",188 % of control and 200 % of control and 166 % of control
COc1cccc2c1C(=O)c1c(O)c3c(c(O)c1C2=O)C[C@@](O)(C(C)=O)C[C@@H]3OC1CC(N)C(O)C(C)O1 (some centres not stated),T/C,"dose: 0.25 mg/kg/injection, schedule: Q01DX009 (ip), vehicle: saline",97 % of control and 100 % of control
same,T/C,"dose: 0.25 mg/kg/injection, schedule: Q01DX009 (sc), vehicle: saline",98 % of control
same,T/C,"dose: 0.5 mg/kg/injection, schedule: Q01DX009 (ip), vehicle: saline",96 % of control and 98 % of control
same,T/C,"dose: 0.5 mg/kg/injection, schedule: Q01DX009 (sc), vehicle: saline",104 % of control
same,T/C,"dose: 1.0 mg/kg/injection, schedule: Q01DX009 (ip), vehicle: saline",101 % of control and 96 % of control (2×)
same,T/C,"dose: 1.0 mg/kg/injection, schedule: Q01DX009 (sc), vehicle: saline",107 % of control
same,T/C,"dose: 1.5 mg/kg/injection, schedule: Q01DX009 (ip), vehicle: saline",100 % of control
same,T/C,"dose: 2.0 mg/kg/injection, schedule: Q01DX009 (ip), vehicle: saline",101 % of control and 102 % of control and 98 % of control
same,T/C,"dose: 2.0 mg/kg/injection, schedule: Q01DX009 (sc), vehicle: saline",109 % of control
same,T/C,"dose: 3.0 mg/kg/injection, schedule: Q01DX009 (ip), vehicle: saline",97 % of control
same,T/C,"dose: 4.0 mg/kg/injection, schedule: Q01DX009 (ip), vehicle: saline",98 % of control
same,T/C,"dose: 4.0 mg/kg/injection, schedule: Q01DX009 (sc), vehicle: saline",120 % of control
same,T/C,"dose: 16.0 mg/kg/injection, schedule: Q01DX009 (sc), vehicle: saline",118 % of control
same,T/C,[1],120 % of control
C[C@]12CC[C@H](OC3OC(CO)C(O)C(O)C3O)C[C@H]1CC[C@@H]1[C@@H]2CC[C@]2(C)[C@@H](C3=CCOC3=O)CC[C@]12O (some centres not stated),T/C,"dose: 3.0 mg/kg/injection, schedule: Q01DX Z (sc), vehicle: saline",110 % of control
same,T/C,"dose: 5.0 mg/kg/injection, schedule: Q01DX Z (sc), vehicle: saline",110 % of control
same,T/C,"dose: 8.4 mg/kg/injection, schedule: Q01DX Z (sc), vehicle: saline",110 % of control
O=C1c2c(O)ccc(O)c2C(=O)c2c(NCCNCCO)ccc(NCCNCCO)c21,T/C,"dose: 0.5 mg/kg/injection, schedule: Q01DX009 (ip), vehicle: saline with Tween-80",105 % of control and 114 % of control and 116 % of control
same,T/C,"dose: 1.0 mg/kg/injection, schedule: Q01DX009 (ip), vehicle: saline with Tween-80",114 % of control
same,T/C,"dose: 2.0 mg/kg/injection, schedule: Q01DX009 (ip), vehicle: saline with Tween-80",168 % of control
O=C/C(Br)=C(/Br)C(=O)O,T/C,"dose: 3.0 mg/kg/injection, schedule: Q01DX Z (sc), vehicle: other",100 % of control
same,T/C,"dose: 5.0 mg/kg/injection, schedule: Q01DX Z (sc), vehicle: other",100 % of control
same,T/C,"dose: 8.4 mg/kg/injection, schedule: Q01DX Z (sc), vehicle: other",100 % of control
same,T/C,"dose: 14.0 mg/kg/injection, schedule: Q01DX Z (sc), vehicle: other",100 % of control
same,T/C,"dose: 39.0 mg/kg/injection, schedule: Q01DX Z (sc), vehicle: other",100 % of control
O=S1(=O)CS(=O)(=O)OCCO1,T/C,"dose: 25.0 mg/kg/injection, schedule: Q01DX009 (ip), vehicle: Klucel (hydroxypropylcellulose) (HPC)",216 % of control
same,T/C,"dose: 50.0 mg/kg/injection, schedule: Q01DX009 (ip), vehicle: Klucel (hydroxypropylcellulose) (HPC)",175 % of control
Nc1ncnc2c1ncn2C(C=O)OC(C=O)CO (configuration not stated),T/C,"dose: 14.0 mg/kg/injection, schedule: Q01DX Z (sc), vehicle: carboxymethylcellulose (CMC)",100 % of control
same,T/C,"dose: 23.0 mg/kg/injection, schedule: Q01DX Z (sc), vehicle: carboxymethylcellulose (CMC)",105 % of control
same,T/C,"dose: 39.0 mg/kg/injection, schedule: Q01DX Z (sc), vehicle: carboxymethylcellulose (CMC)",100 % of control
same,T/C,"dose: 108.0 mg/kg/injection, schedule: Q01DX Z (sc), vehicle: carboxymethylcellulose (CMC)",111 % of control
same,T/C,"dose: 180.0 mg/kg/injection, schedule: Q01DX Z (sc), vehicle: carboxymethylcellulose (CMC)",100 % of control
